Source: patent EP4772161A1, “SKIN COSMETIC COMPOSITION CONTAINING BOTRYOCOCCENE AS ACTIVE INGREDIENT” (Phycochemy Corporation, priority 2023, dated 2025)

Assays:
Type in all cases: cell-based, human
NHEK cells [1] = test: Cytotoxicity with botryococcene treatment (Neutral Red uptake); conditions: 24 hours
Experimental: (§1) Normal human epidermal keratinocytes (NHEKs) were cultured in HuMedia-KG2 (KG2) medium containing 10% fetal bovine serum, 1% antibiotic and 1% human epidermal keratinocyte growth supplement, in a 37°C, 5% CO2 incubator.
NHEK cells were seeded on a 96-well plate at a density of 2.5 × 10^4 cells/well in KG2 medium, and incubated for 24 hours. The supernatant was aspirated, the medium was exchanged with HuMedia-KB2 (KB2) medium containing 0, 12.5, 25, 50, 100, 200 and 400 µM botryococcene, and the mixture was incubated for 24 hours. After culturing, the cells were washed with PBS, the medium was exchanged with KB2 medium containing 0.003% Neutral Red, and culturing was carried out for 2 hours. The Neutral Red in the cells was extracted with 1 M HCl in 30% MeOH. The absorbance at 550 nm was measured with a microplate reader.

PGE2 = PGE2 production in culture supernatant of NHEK cells, with or without UVB irradiation (ELISA, per unit protein)
Experimental: as §1
(§2) NHEK cells were seeded on a 96-well plate at a density of 2.5 × 10^4 cells/well in KG2 medium, and incubated for 24 hours. The supernatant was aspirated, the medium was exchanged with KB2 medium containing 0, 25, 50, 100 and 200 µM botryococcene, and culturing was continued for 24 hours, after which the cells were washed with PBS and the medium was exchanged with HBSS. The cells were then irradiated with UVB (280 to 320 nm, 20 mJ/cm^2) and cultured for 24 hours in fresh KB2 medium. The IL-1α and PGE2 expression levels in the culture supernatants were measured using an ELISA measuring kit. The cells were then dissolved in 50 µL of PBS containing 0.5% Triton^R X-100, the protein level was quantified, and the IL-1α and PGE2 production levels per unit protein were calculated.

intracellular ROS = test: Intracellular reactive oxygen species removal (DCFH-DA fluorescence per unit protein); conditions: NHEK cells, botryococcene 25-200 µM for 24 hours
Experimental: as §1
NHEK cells were seeded on a 96-well plate at a density of 2.5 × 10^4 cells/well in KG2 medium, and incubated for 24 hours. The supernatant was removed, the medium was exchanged with KB2 medium containing 0, 25, 50, 100 and 200 µM botryococcene, and incubation was carried out for 24 hours. After culturing, the cells were washed with PBS, the medium was exchanged with HBSS buffer containing 200 µM H2O2, and culturing was continued for 1 hour. The supernatant was removed and culturing was carried out for 30 minutes in HBSS buffer containing 20 µM DCFH-DA. The fluorescence intensity was measured with a microplate reader ([…]). The cells were then dissolved in 50 µL of PBS containing 0.5% Triton^R X-100, the protein level was quantified, and the fluorescence intensity per unit protein was normalized.

IL-1α = IL-1α production in culture supernatant of NHEK cells, with or without UVB irradiation (ELISA, per unit protein)
Experimental: as §1, §2

type I collagen = test: Type I collagen production by NHDF cells treated with supernatant (K-CM) of UVB-irradiated NHEK cells (ELISA, per unit protein)
Experimental: as §1
(§3) Normal human skin fibroblasts (NHDFs) were cultured in DMEM with addition of 10% fetal bovine serum, 1% antibiotic and 1% human epidermal keratinocyte growth supplement, in a 37°C, 5% CO2 incubator.
(§4) NHEK cells were seeded on a 96-well plate at a density of 2.5 × 10^4 cells/well in KG2 medium, and incubated for 24 hours. The supernatant was aspirated, the medium was exchanged with KB2 medium containing 0, 25, 50, 100 and 200 µM botryococcene, and culturing was continued for 24 hours, after which the cells were washed with PBS and the medium was replaced with HBSS. The cells were then irradiated with UVB (280 to 320 nm, 20 mJ/cm^2) and cultured for 24 hours in fresh KB2 medium. After culturing, the supernatant (K-CM) was collected. NHDF cells were seeded on a 96-well plate at a density of 2.0 × 10^4 cells/well in DMEM medium, and incubated for 24 hours. […] The cells were then dissolved in 50 µL of PBS containing 0.5% Triton^R X-100, and the protein level was quantified with a BCA Protein Assay Kit (product of Thermo Fisher Scientific), calculating the type I collagen and MMP-1 production per unit protein.

NHEK cells [2] = test: Protection against cytotoxicity induced by H2O2 (Neutral Red uptake); conditions: botryococcene 25-200 µM for 24 hours, then 300 µM H2O2 for 1 hour
Experimental: as §1
NHEK cells were seeded on a 96-well plate at a density of 2.5 × 10^4 cells/well in KG2 medium, and incubated for 24 hours. The supernatant was aspirated, the medium was exchanged with KB2 medium containing 0, 25, 50, 100 and 200 µM botryococcene, and incubation was carried out for 24 hours. After culturing, the cells were washed for 1 hour with HBSS containing PBS and 300 µM H2O2, and the cells were then incubated for 24 hours in KB2 medium. After incubation, the cells were washed with PBS, the medium was exchanged with KB2 medium containing 0.003% Neutral Red, and culturing was carried out for 2 hours. After culturing, the cells were washed with PBS. The Neutral Red in the cells was extracted with 1 M HCl in 30% MeOH. The absorbance at 550 nm was measured with a microplate reader.

NHEK cells [3] = test: Fluorescent bead (FluoSpheres) phagocytosis induced by UVB irradiation; conditions: UVB 20 mJ/cm^2
Experimental: as §1
NHEK cells were seeded on a 96-well plate at a density of 2.5 × 10^4 cells/well in KG2 medium, and incubated for 24 hours. The supernatant was aspirated, the medium was exchanged with KB2 medium containing 0, 25, 50, 100 and 200 µM botryococcene, and culturing was continued for 24 hours, after which the cells were washed with PBS and the medium was replaced with HBSS. The cells were then irradiated with UVB (280 to 320 nm, 20 mJ/cm^2) and cultured for 24 hours in fresh KB2 medium. After replacing the medium with of KB2 medium containing FluoSpheres™ and allowing the cells to stand for 4 hours, they were dissolved with 50 µL of PBS containing 0.5% Triton^R X-100 and the fluorescence of the cell lysate was measured with a microplate reader. The fluorescence of the cell lysate was detected with a fluorescence reader at an excitation/luminous wavelength of 535 nm/590 nm. The cells were then dissolved in 50 µL of PBS containing 0.5% Triton^R X-100, the protein level was quantified, and the fluorescence intensity per unit protein was normalized.

MMP-1 = MMP-1 production by NHDF cells treated with supernatant (K-CM) of UVB-irradiated NHEK cells (ELISA, per unit protein)
Experimental: as §1, §3, §4

[4] = botryococcene 200 µM, UVB 20 mJ/cm^2
[5] = botryococcene 25 to 100 µM, UVB 20 mJ/cm^2
[6] = NHDF cells with K-CM of UVB-irradiated NHEK cells pretreated with botryococcene 200 µM
[7] = NHDF cells with K-CM of UVB-irradiated NHEK cells pretreated with botryococcene 25 to 100 µM

SMILES: C=C[C@@](C)(/C=C/[C@H](C)CC[C@H](C)C(=C)CC[C@H](C)C(=C)C)CC[C@H](C)C(=C)CC[C@H](C)C(=C)C [botryococcene]
- cell viability (NHEK cells [1]; botryococcene 0 to 200 µM): No change in cell viability was observed
- cell viability (NHEK cells [1]; botryococcene 400 µM): a notable reduction was observed
- Induction of PGE2 production (PGE2; [4]): not inhibited
- PGE2 production induced by UVB irradiation (PGE2; [5]): inhibited all of the IL-1α and PGE2 production induced by UVB irradiation in a concentration-dependent manner up to 100 µM
- amount of PGE2 produced (PGE2; non-UVB-irradiated conditions, botryococcene up to 50 µM): reduced by botryococcene in a concentration-dependent manner
- intracellular ROS concentration (intracellular ROS; then 200 µM H2O2 treatment for 1 hour): decrease in a concentration-dependent manner
- intracellular ROS concentration (intracellular ROS; without H2O2 treatment): decrease in a concentration-dependent manner
- Induction of IL-1α production (IL-1α; [4]): not inhibited
- IL-1α production induced by UVB irradiation (IL-1α; [5]): inhibited all of the IL-1α and PGE2 production induced by UVB irradiation in a concentration-dependent manner up to 100 µM
- amount of IL-1α produced (IL-1α; non-UVB-irradiated conditions, botryococcene up to 100 µM): reduced by botryococcene in a concentration-dependent manner up to 100 µM for IL-1α
- inhibiting effect on reduction in collagen production (type I collagen; [6]): less prominent than with 50 µM or 100 µM
- reduction in collagen production (type I collagen; [7]): inhibited the reduction in collagen production and acceleration of MMP-1 production in a concentration-dependent manner up to 100 µM
- reduction in cell viability by H2O2 treatment (NHEK cells [2]): restored by addition of botryococcene, in a concentration-dependent manner
- effect of inhibiting fluorescent bead phagocytosis (NHEK cells [3]; botryococcene 200 µM): less prominent than with 50 µM or 100 µM
- fluorescent bead phagocytosis by UVB irradiation (NHEK cells [3]; botryococcene 25 to 100 µM): inhibited fluorescent bead phagocytosis by UVB irradiation in a concentration-dependent manner up to 100 µM
- inhibiting effect on acceleration of MMP-1 production (MMP-1; [6]): less prominent than with 50 µM or 100 µM
- acceleration of MMP-1 production (MMP-1; [7]): inhibited the reduction in collagen production and acceleration of MMP-1 production in a concentration-dependent manner up to 100 µM
